Measured values as given in patent US12482566B2, “Systems and methods for predicting cancer metastasis and screening of drugs” (MESTASTOP SOLUTIONS PRIVATE LIMITED, priority 2020, dated 2025).

System: inducible engineered cell
Test: Mesenchymal to Epithelial transition (MET) assay (D11), plasticity ratio from E-Cadherin and Vimentin markers
Type: cell-based
Settings: 10 mM RA; FIG. 12A; E-Cadherin (AF 647), Vimentin (AF 488); PR with no RA 1.3
From the text: FIGS. 12A and 12B depict an assay, Mesenchymal to Epithelial transition (MET) (D11), at various concentrations of Retinoic acid (RA) assessing markers E-Cadherin and Vimentin; and RA effect on expression of E-Cadherin and Vimentin in SW480 clone 1C3, respectively, according to embodiments as disclosed herein;
FIGS. 12A and 12B are representations depicting assay for Mesenchymal to Epithelial transition (MET) (D11), at various concentrations of Retinoic acid (RA) measuring markers E-Cadherin and Vimentin; and RA effect on expression of E-Cadherin and Vimentin in SW480 clone 1C3, respectively. […] FIGS. 15A, 15B and 15C are representations depicting assay for Exosome vesicles secretion and uptake (D14), showing standard curve of exosome quantification; exosome secretion in colon cancer cells; and exosome uptake in cell lines.
Mesenchymal to Epithelial transition (MET) is the ability of the tumor cells to change from the moving cellular form, back to the growing cellular form. This is measured by detecting the change in the epithelial and mesenchymal cell markers, once cells are treated with agents promoting MET. […] Flow cytometry is used, along with imaging techniques like fluorescence markers using multiple proteins as markers, including but not limited to E cadherin, Vimentin, N Cadherin, Epcam, CD 133, CD 44, to measure MET. […]

**Q.** `CC1=C(/C=C/C(C)=C/C=C/C(C)=C/C(=O)O)C(C)(C)CCC1` [RA, Retinoic acid] was tested. Which “PR (plasticity ratio, mesenchymal marker Vimentin to epithelial marker E-Cadherin)” value did it give?
**A.** 0.56
